From DBAASP come the findings set out here.

SMILES strings stand for the structures. Values after ≈ are worked out from the molar mass of the structure shown. A value given as a limit tells only on which side of the number the result lay.

Common to all, as to assay: ≥ marks a high value that may be exact or a test limit, other limits are often not marked, values filed in µg/mL are converted to µM
In assay [1] the test system is Escherichia coli ATCC 25726.
Assay [2] deals with Staphylococcus aureus ATCC 25923.
The test system of assay [3] is Escherichia coli ATCC 8739.
Assay [4] relates to Staphylococcus aureus ATCC 6538.
The test system of assay [5] is Staphylococcus aureus ATCC 43300.
Assay [6] deals with Bacillus subtilis ATCC 6633.
In the next assay the test system is Escherichia coli JW0013.

A word on the MIC: it is the lowest concentration that inhibits growth of the organism. Lower therefore signals greater potency.

Consider `CC[C@H](C)[C@H](NC(=O)[C@H](CCCCN)NC(=O)[C@H](C)NC(=O)[C@H](C)NC(=O)[C@H](CC(C)C)NC(=O)CNC(=O)[C@H](C)NC(=O)[C@H](CC(C)C)NC(=O)[C@@H](NC(=O)[C@@H]1CCCN1C(=O)[C@H](CC(C)C)NC(=O)[C@@H](N)Cc1ccccc1)[C@@H](C)CC)C(=O)N[C@H](C(=O)N1CCC[C@H]1C(=O)N[C@@H](CCCCN)C(=O)N[C@@H](CC(C)C)C(=O)N[C@@H](Cc1ccccc1)C(=O)N[C@H]1CSSC[C@@H](C(=O)O)NC(=O)[C@H](CCCCN)NC(=O)[C@H](CCCCN)NC(=O)[C@H]([C@@H](C)O)NC(=O)[C@H](C)NC(=O)[C@H](CC(C)C)NC1=O)C(C)C` [FLPILAGLAAKIVPKLFCLATKKC], for which the MIC in assay [1] is at least 32 µM; in assay [2], 2 µM (≈ 5.11 µg/mL).
In the case of `CC[C@H](C)[C@H](NC(=O)[C@H](CCCCN)NC(=O)[C@H](CO)NC(=O)[C@H](C)NC(=O)[C@H](Cc1c[nH]c2ccccc12)NC(=O)CN)C(=O)NCC(=O)N[C@@H](CCC(N)=O)C(=O)N[C@H](C(=O)N[C@@H](CC(C)C)C(=O)NCC(=O)N[C@@H](CCCCN)C(=O)N[C@@H](CCSC)C(=O)N[C@@H](C)C(=O)N[C@@H](CCCCN)C(=O)N[C@H](C(=O)NCC(=O)N[C@@H](CC(C)C)C(=O)N[C@@H](CCC(N)=O)C(=O)N[C@@H](CCC(=O)O)C(=O)N[C@H](C(=O)N[C@H](C(=O)N[C@@H](CCC(N)=O)C(=O)N1CCC[C@H]1C(=O)N[C@@H](CCCCN)C(=O)O)[C@@H](C)CC)[C@@H](C)CC)C(C)C)[C@@H](C)O` [GWASKIGQTLGKMAKVGLQEIIQPK], the MIC in assay [1] was at least 50 µM; in assay [2] it was over 50 µM.
Turning to `CC[C@H](C)[C@@H]1NC(=O)[C@H](CCCCN)NC(=O)[C@@H](NC(=O)[C@H](CO)NC(=O)[C@H](CC(C)C)NC(=O)[C@H](C)NC(=O)[C@H](CC(N)=O)NC(=O)[C@H](CC(C)C)NC(=O)[C@@H](NC(=O)[C@H](CO)NC(=O)[C@@H](NC(=O)CNC(=O)[C@H](C)NC(=O)[C@H](CO)NC(=O)[C@H](CCCCN)NC(=O)[C@H](C)NC(=O)[C@H](C)NC(=O)[C@H](CC(N)=O)NC(=O)[C@@H](NC(=O)[C@H](C)NC(=O)[C@H](CC(C)C)NC(=O)[C@H](CC(N)=O)NC(=O)[C@H](CCCCN)NC(=O)[C@H](Cc2ccccc2)NC(=O)[C@@H](NC(=O)[C@H](CC(=O)O)NC(=O)[C@H](CC(C)C)NC(=O)[C@H](CC(C)C)NC(=O)[C@@H](N)CO)[C@@H](C)O)C(C)C)C(C)C)C(C)C)CSSC[C@@H](C(=O)O)NC(=O)[C@H]([C@@H](C)O)NC(=O)[C@H](CCCN=C(N)N)NC(=O)[C@H](CO)NC1=O` [SLLDTFKNLAVNAAKSAGVSVLNALSCKISRTC], the MIC in assay [3] was at least 50 µM; in assay [4] it was 12.5 µM (≈ 42.4 µg/mL); in assay [5], 100 µM (≈ 339 µg/mL); in assay [6], 12.5 µM (≈ 42.4 µg/mL).
Take `CC[C@H](C)[C@H](NC(=O)[C@H](CCCN=C(N)N)NC(=O)[C@H](CCCN=C(N)N)NC(=O)[C@@H]1CCCN1C(=O)[C@@H]1CCCN1C(=O)[C@H](CCCN=C(N)N)NC(=O)[C@@H]1CCCN1C(=O)[C@H](CCCN=C(N)N)NC(=O)[C@@H]1CCCN1C(=O)[C@H](CC(C)C)NC(=O)[C@H](Cc1ccc(O)cc1)NC(=O)[C@@H]1CCCN1C(=O)[C@@H]1CCCN1C(=O)[C@H](CCCCN)NC(=O)[C@H](CC(=O)O)NC(=O)[C@@H](N)CCCN=C(N)N)C(=O)N[C@@H](Cc1ccc(O)cc1)C(=O)N[C@@H](CC(N)=O)C(=O)N[C@@H](CCCN=C(N)N)C(N)=O` [RDKPPYLPRPRPPRRIYNR]: the MIC in the assay with Escherichia coli JW0013 came out at 1.96 µM (≈ 4.8 µg/mL).
On to `CC[C@H](C)[C@H](NC(=O)[C@H](C)NC(=O)[C@H](CC(N)=O)NC(=O)[C@@H](N)CCSC)C(=O)N[C@@H](CC(N)=O)C(=O)N[C@@H](Cc1ccccc1)C(=O)N[C@H](C(=O)N[C@@H](CS)C(=O)N[C@H](C(=O)N[C@H](C(=O)N[C@@H](Cc1cnc[nH]1)C(=O)N[C@@H](CCCCN)C(=O)N[C@@H](CCCCN)C(=O)N[C@H](C(=O)N[C@@H](C)C(=O)N[C@H](C(=O)N[C@@H](CO)C(=O)N[C@H](C(=O)O)C(C)C)[C@@H](C)CC)C(C)C)C(C)C)[C@@H](C)O)[C@@H](C)O` [MNAINFTCTVHKKVAISV], for which the values for the MIC in assay [2] and in assay [3] were over 130 µM and at least 130 µM, respectively.
Regarding `CC[C@H](C)[C@H](NC(=O)[C@H](CCCN=C(N)N)NC(=O)[C@H](CCCN=C(N)N)NC(=O)[C@@H]1CCCN1C(=O)[C@@H]1CCCN1C(=O)[C@H](CCCN=C(N)N)NC(=O)[C@@H]1CCCN1C(=O)[C@H](CCCN=C(N)N)NC(=O)[C@@H]1CCCN1C(=O)[C@H](CCCN=C(N)N)NC(=O)[C@H](Cc1ccc(O)cc1)NC(=O)[C@H](Cc1cnc[nH]1)NC(=O)[C@H](CCCCN)NC(=O)[C@H](CCCCN)NC(=O)[C@H](CC(=O)O)NC(=O)[C@@H](N)C(C)C)C(=O)N[C@@H](Cc1ccc(O)cc1)C(=O)N[C@@H](CC(N)=O)C(=O)N[C@@H](CCCN=C(N)N)C(N)=O` [VDKKHYRPRPRPPRRIYNR], the MIC against Escherichia coli JW0013 amounted to 0.639 µM (≈ 1.6 µg/mL).
Same read-out and setting: the figure for `CC[C@H](C)[C@H](NC(=O)[C@H](CCCCN)NC(=O)[C@@H](N)CCCN=C(N)N)C(=O)N[C@@H](CCCN=C(N)N)C(=O)N1CCC[C@H]1C(=O)N[C@@H](CCCN=C(N)N)C(=O)N1CCC[C@H]1C(=O)N1CCC[C@H]1C(=O)N[C@@H](CCCN=C(N)N)C(=O)N[C@@H](CC(C)C)C(=O)N1CCC[C@H]1C(=O)N[C@@H](CCCN=C(N)N)C(=O)N1CCC[C@H]1C(=O)N[C@@H](CCCN=C(N)N)C(=O)N1CCC[C@H]1C(=O)N[C@@H](CCCN=C(N)N)C(=O)O` [RKIRPRPPRLPRPRPR] is 0.3 µM (≈ 0.615 µg/mL); for `CC[C@H](C)[C@H](NC(=O)[C@H](CCCN=C(N)N)NC(=O)[C@H](CCCN=C(N)N)NC(=O)[C@@H]1CCCN1C(=O)[C@@H]1CCCN1C(=O)[C@H](CCCN=C(N)N)NC(=O)[C@H](CCCCN)NC(=O)[C@H](CCCN=C(N)N)NC(=O)[C@@H]1CCCN1C(=O)[C@H](CC(C)C)NC(=O)[C@H](Cc1ccc(O)cc1)NC(=O)[C@@H]1CCCN1C(=O)[C@H](CCCCN)NC(=O)[C@H](CCCCN)NC(=O)[C@H](CC(=O)O)NC(=O)[C@@H](N)C(C)C)C(=O)N[C@@H](Cc1ccc(O)cc1)C(=O)N[C@@H](CC(N)=O)C(=O)N[C@@H](CCCN=C(N)N)C(N)=O` [VDKKPYLPRKRPPRRIYNR] it is 0.489 µM (≈ 1.2 µg/mL).
With `CC[C@H](C)[C@H](NC(=O)[C@H](CC(C)C)NC(=O)[C@H](CC(C)C)NC(=O)[C@H](CC(=O)O)NC(=O)[C@H](CCCCN)NC(=O)[C@@H](NC(=O)[C@@H](NC(=O)CNC(=O)[C@H](CC(C)C)NC(=O)[C@@H](NC(=O)[C@@H](N)CO)C(C)C)[C@@H](C)O)C(C)C)C(=O)NCC(=O)N[C@@H](C)C(=O)NCC(=O)N[C@@H](CCCCN)C(=O)N[C@@H](CO)C(=O)N[C@@H](C)C(=O)N[C@@H](C)C(=O)N[C@@H](CCC(N)=O)C(=O)N[C@@H](CO)C(=O)N[C@H](C(=O)N[C@@H](CC(C)C)C(=O)N[C@H](C(=O)N[C@H](C(=O)N[C@@H](CC(C)C)C(=O)N[C@@H](CO)C(=O)N[C@H]1CSSC[C@@H](C(=O)O)NC(=O)[C@H](CO)NC(=O)[C@H](CC(N)=O)NC(=O)[C@H](CO)NC(=O)[C@H](CC(C)C)NC(=O)[C@H](CCCCN)NC1=O)[C@@H](C)O)[C@@H](C)O)C(C)C` [SVLGTVKDLLIGAGKSAAQSVLTTLSCKLSNSC], the results for the MIC in assay [3] and in assay [4] were at least 50 µM and 25 µM (≈ 81.6 µg/mL), respectively.
In the assay with Escherichia coli JW0013, `CC[C@H](C)[C@H](NC(=O)[C@H](CCCN=C(N)N)NC(=O)[C@H](CCCN=C(N)N)NC(=O)[C@@H]1CCCN1C(=O)[C@@H]1CCCN1C(=O)[C@H](CCCN=C(N)N)NC(=O)[C@@H]1CCCN1C(=O)[C@H](CCCN=C(N)N)NC(=O)[C@@H]1CCCN1C(=O)[C@H](CC(C)C)NC(=O)[C@H](Cc1ccc(O)cc1)NC(=O)[C@H](CCCN=C(N)N)NC(=O)[C@@H]1CCCN1C(=O)[C@H](CCCCN)NC(=O)[C@H](CC(=O)O)NC(=O)[C@@H](N)C(C)C)C(=O)N[C@@H](Cc1ccc(O)cc1)C(=O)N[C@@H](CC(N)=O)C(=O)N[C@@H](CCCN=C(N)N)C(N)=O` [VDKPRYLPRPRPPRRIYNR] yielded an MIC of 1.35 µM (≈ 3.3 µg/mL).
The same measure, in the same setting: to `CC[C@H](C)[C@H](NC(=O)[C@H](CCCN=C(N)N)NC(=O)[C@H](CCCN=C(N)N)NC(=O)[C@@H]1CCCN1C(=O)[C@@H]1CCCN1C(=O)[C@H](CCCN=C(N)N)NC(=O)[C@@H]1CCCN1C(=O)[C@H](CCCN=C(N)N)NC(=O)[C@@H]1CCCN1C(=O)[C@H](CC(C)C)NC(=O)[C@H](Cc1ccc(O)cc1)NC(=O)[C@@H]1CCCN1C(=O)[C@@H]1CCCN1C(=O)[C@H](CCCCN)NC(=O)[C@H](CCCCN)NC(=O)[C@@H](N)C(C)C)C(=O)N[C@@H](Cc1ccc(O)cc1)C(=O)N[C@@H](CC(N)=O)C(=O)N[C@@H](CCCN=C(N)N)C(N)=O` [VKKPPYLPRPRPPRRIYNR] belongs 1.37 µM (≈ 3.3 µg/mL).
Consider `CC[C@H](C)[C@H](NC(=O)[C@H](CCCN=C(N)N)NC(=O)[C@H](CCCN=C(N)N)NC(=O)[C@@H]1CCCN1C(=O)[C@@H]1CCCN1C(=O)[C@H](CCCN=C(N)N)NC(=O)[C@H](CCCCN)NC(=O)[C@H](CCCN=C(N)N)NC(=O)[C@@H]1CCCN1C(=O)[C@H](CC(C)C)NC(=O)[C@H](Cc1ccc(O)cc1)NC(=O)[C@@H]1CCCN1C(=O)[C@H](CCCN=C(N)N)NC(=O)[C@H](CCCCN)NC(=O)[C@H](CC(=O)O)NC(=O)[C@@H](N)C(C)C)C(=O)N[C@@H](Cc1ccc(O)cc1)C(=O)N[C@@H](CC(N)=O)C(=O)N[C@@H](CCCN=C(N)N)C(N)=O` [VDKRPYLPRKRPPRRIYNR], for which the MIC in the assay with Escherichia coli JW0013 was determined as 0.685 µM (≈ 1.7 µg/mL).
Still for that read-out and setting: the figure for `CC[C@H](C)[C@H](NC(=O)[C@H](CCCN=C(N)N)NC(=O)[C@H](CCCN=C(N)N)NC(=O)[C@@H]1CCCN1C(=O)[C@@H]1CCCN1C(=O)[C@H](CCCN=C(N)N)NC(=O)[C@H](CCCCN)NC(=O)[C@H](CCCN=C(N)N)NC(=O)[C@@H]1CCCN1C(=O)[C@H](CC(C)C)NC(=O)[C@H](Cc1ccc(O)cc1)NC(=O)[C@H](Cc1cnc[nH]1)NC(=O)[C@H](CCCN=C(N)N)NC(=O)[C@H](CCCCN)NC(=O)[C@H](CC(=O)O)NC(=O)[C@@H](N)C(C)C)C(=O)N[C@@H](Cc1ccc(O)cc1)C(=O)N[C@@H](CC(N)=O)C(=O)N[C@@H](CCCN=C(N)N)C(N)=O` [VDKRHYLPRKRPPRRIYNR] is 0.635 µM (≈ 1.6 µg/mL).
